This is an account of results in article PMC6704710, “Preclinical evaluation of 3D185, a novel potent inhibitor of FGFR1/2/3 and CSF-1R, in FGFR-dependent and macrophage-dominant cancer models” (Journal of Experimental & Clinical Cancer Research : CR, 2019).

For one test, the system named is PBMC (CSF-2). The test is described as follows: Macrophage survival (CCK-8). It is filed as cell-based. The conditions noted are these: Homo sapiens, 168 h, 7 days. As for the experimental part:
(§1) Murine bone marrow-derived macrophages (BMDMs) and PBMCs were used for cell viability studies. BMDMs were harvested by flushing the tibias and femurs of 6- to 8-week-old C57BL/6 mice and depleting red blood cells (RBCs) by RBC lysis (Biogems). For BMDM survival, the cells were cultured for 7 days in RPMI 1640 containing 10% fetal bovine serum (FBS), 100 U/mL penicillin, 100 μg/mL streptomycin and 100 ng/mL mouse CSF-1 (or CSF-2) with or without the tested compounds. PBMCs were obtained from HemaCare and cultured for 7 days in RPMI 1640 containing 10% fetal bovine serum (FBS), 100 U/mL penicillin, 100 μg/mL streptomycin and 100 ng/mL human CSF-1 (or CSF-2) with or without the tested compounds. Cell viability was measured using the CCK-8 assay. For IL-4/IL-13-induced macrophage survival analysis, viable cells were counted by trypan blue exclusion.

In test [1] the test system is CSF-1-differentiated macrophages induced RT112 cell migration. The test is described as follows: Tumor cell migration assay (Transwell co-culture). It is filed as cell-based, human. Particulars: 25 nM, 24 h.
In a further test the test system is BMDM (CSF-2). The test is described as follows: Macrophage survival (CCK-8). It is filed as cell-based, murine. Particulars: 7 days. As for the experimental part: as §1
The test system of test [2] is MC38 colorectal adenocarcinoma model. The test is described as follows: In vivo antitumor activity, MC38 model. The conditions noted are these: oral once daily 23 days. Further details: species or system C57BL/6 mice. As for the experimental part: For the MC38 xenograft model, 6-week-old C57BL/6 mice were housed and maintained under specific pathogen-free conditions. Tumor cells (2 × 10^6 in 200 μL) were injected subcutaneously (s.c.) into the right flanks of C57BL/6 mice. […] The tumors were measured twice per week using a microcaliper. Tumor volume (TV) was calculated as follows: TV = (length × width^2)/2. In addition, the individual relative tumor volume (RTV) was calculated as follows: RTV = Vt / V0, where Vt is the volume on a particular day and V0 is the volume at the beginning of the treatment. The RTV is shown on the indicated days as the […] ± SEM for the indicated groups of mice.

Another test deals with PBMC (CSF-1). The test is described as follows: Macrophage survival (CCK-8). It is filed as cell-based. The conditions noted are these: Homo sapiens, 168 h, 7 days, mean ± SD. As for the experimental part: (§2) Murine bone marrow and human monocytes were stimulated with CSF-1 for 7 days together with the indicated inhibitor, and cell viability was evaluated by the CCK-8 assay. The IC50 values are shown as the mean ± SD (nM) from two independent tests. B-E, To test the impact of 3D185 on the polarization of CSF-1-induced macrophages, murine bone marrow cells and human monocytes were induced to mature into macrophages with CSF-1 for 7 days and then stimulated with CSF-1, IL-4 and IL-13 for an additional 48 h. The expression of the markers MHC-II (b), CD86 (c), and CD206 (d) on induced murine macrophages and CD206 expression on induced human macrophages (e) were determined by flow cytometry, and the mean fluorescence intensity (MFI) was analyzed with FlowJo. Representative data from two independent experiments. f Murine bone marrow cells (left panel) and human monocytes (right panel) were induced to mature into macrophages with CSF-1 for 7 days and then stimulated with CSF-1, IL-4 and IL-13 and treated with vehicle or the indicated inhibitor for an additional 48 h. Then, all cells were collected to count viable cells by staining with trypan blue
Murine bone marrow-derived macrophages (BMDMs) and PBMCs were used for cell viability studies. […] Cell viability was measured using the CCK-8 assay. For IL-4/IL-13-induced macrophage survival analysis, viable cells were counted by trypan blue exclusion.

The test system of the next test is BMDM (CSF-1). The test is described as follows: Macrophage survival (CCK-8). It is filed as cell-based, murine. The conditions noted are these: 7 days, mean ± SD. As for the experimental part: as §2, §1
The test system of another test is UMUC14. Description: Cell proliferation assay. Type of test: cell-based, human. The conditions noted are these: 72 h, mean ± SD. The method, then:
(§3) The cancer cell lines indicated in Figure 3 were seeded in 96-well plates at a low density in growth medium. The next day, appropriate controls or the designated concentrations of the compounds were added to each well, and the cells were incubated for 72 h. HUVECs (passage 3) were seeded in 96-well plates in growth medium overnight and transferred to serum-free medium for 24 h. The following day, appropriate controls or the designated concentrations of the compounds were added to each well, and 100 ng/mL growth factor (bFGF or VEGF) was added to the indicated wells. The cells were incubated for 48 h. Finally, cell proliferation was determined using a sulforhodamine B (SRB) assay or a cell counting kit-8 (CCK-8) assay. […] IC50 values for proliferation curves were calculated using a 4-parameter logistic nonlinear regression model with SoftMax Pro Software (Molecular Devices, San Jose, USA).

The test system of a further test is OPM2. Description: Cell proliferation assay. Particulars: 72 h, mean ± SD. Type of test: cell-based, human. As for the experimental part: as §3
Another test relates to KG-1. The test is described as follows: Cell proliferation assay. Type of test: cell-based, human. The conditions noted are these: 72 h, mean ± SD. As for the experimental part:
as §3

Another test relates to RT112. The test is described as follows: Cell proliferation assay. The conditions noted are these: 72 h, mean ± SD. Type of test: cell-based, human. The method, then:
as §3

A further test has as its system KATOIII. The test is described as follows: Cell proliferation assay. Type of test: cell-based, human. The conditions noted are these: 72 h, mean ± SD. As for the experimental part:
as §3

Another test concerns SUM52PE. The test is described as follows: Cell proliferation assay. Particulars: 72 h, mean ± SD. Type of test: cell-based, human. As for the experimental part:
as §3

The subject of the next test is HUH7. The test is described as follows: Cell proliferation assay. Type of test: cell-based, human. Particulars: 72 h, mean ± SD. As for the experimental part:
as §3

The next test deals with NCI-H1581. The test is described as follows: Cell proliferation assay. Type of test: cell-based, human. The conditions noted are these: 72 h, mean ± SD. The method, then: as §3
Another test has as its system NCI-H716. Description: Cell proliferation assay. Type of test: cell-based, human. The conditions noted are these: 72 h, mean ± SD. As for the experimental part:
as §3

Another test relates to SNU16. Description: Cell proliferation assay. Type of test: cell-based, human. The conditions noted are these: 72 h, mean ± SD. The method, then: as §3
The next test has as its system M-NFS-60. The test is described as follows: Cell proliferation assay. It is filed as cell-based, mouse. Particulars: 72 h, mean ± SD. The method, then:
as §3

One may read the IC50 as the concentration needed to halve the response being measured. High values mean a need for much substance, low ones inhibition by little substance.

As for `FC(F)(F)c1ccc(CNc2ccc(Cc3c[nH]c4ncc(Cl)cc34)cn2)cn1` [PLX3397, reference compound], the IC50 was more than 1000 nM in the test with PBMC (CSF-2); more than 1000 nM in the test on BMDM (CSF-2) (Mus musculus, BMDM, 168 h); 220 ± 38.6 nM with PBMC (CSF-1); 195 ± 48.2 nM in the test on BMDM (CSF-1) (Mus musculus, BMDM, 168 h). Also, the “effect on macrophage-induced RT112 cell migration” value in test [1] is “no inhibitory effect”. Also, the “effect on MC38 tumor growth” value in test [2] was “delayed tumor growth”.
As to AZD4547 [reference compound], the IC50 was 52.9 ± 4.6 nM in the test on UMUC14; 33 ± 7.6 nM in the test on OPM2; 3 ± 0.3 nM in the test with KG-1; 83.3 ± 6.4 nM with RT112; 15.1 ± 2.9 nM with KATOIII; 15.5 ± 2.4 nM in the test on SUM52PE. For the same compound, the 50% inhibitory concentration (IC50) in the test on HUH7 was 284 ± 22.5 nM; with NCI-H1581 it was 43.8 ± 8.6 nM; in the test on NCI-H716 it was 7 ± 0.9 nM; in the test on SNU16, 2.7 ± 0.4 nM; in the test on BMDM (CSF-2), more than 1000 nM; in the test on M-NFS-60 it was 1230 ± 184 nM. 883 ± 133 nM corresponded to half-maximal inhibition in the test with BMDM (CSF-1) (IC50).
